Measurements taken from PMC9428248 (2022).

Tests used:
[1] = tested on: Q2 150-206 (RNA, G4) GAGACUAAUGAACUCUUCCGGGAUGGGGUAAACUGGGGUCGCAUUGUGGCCUUUUUCUCCUUC; assay: fluorescence enhancement; conditions: 100 mM KCl; 10 mM Tris pH 7.0, 25 °C, 10 µM RNA, 1 µM NMM
[2] = tested on: XS 38-206 (RNA, mRNA element) GAGACUGAGGGAGGCAGGCGACGAGUUUGAACUGCGGUACCGGCGGGCAUUCAGUGACCUGACAUCCCAGCUCCACAUCACCCCAGGGACAGCAUAUCAGAGCUUUGAACAGGUAGUGAAUGAACUCUUCCGGGAUGGGGUAAACUGGGGUCGCAUUGUGGCCUUUUUCUCCUUC; assay: fluorescence enhancement; conditions: 100 mM KCl; 10 mM Tris pH 7.0, 25 °C, 10 µM RNA, 1 µM NMM

CCc1c(C)c2cc3nc(cc4nc(cc5c(CC)c(C)c(cc1[nH]2)n5C)C(C)=C4CCC(=O)O)C(CCC(=O)O)=C3C
binding [1]: yes | binding [2]: yes
